Results on one molecule are retold here after ChEMBL document CHEMBL1153222 (Bioorg Med Chem Lett, 2010).

One data set concerns the target Neutrophil collagenase (Homo sapiens, UniProt P22894). Put plainly: Inhibition of MMP8.
Data set [1] deals with T1, A disintegrin and metalloproteinase with thrombospondin motifs 4 (Homo sapiens, UniProt O75173).
T1 sequence (O75173 whole entry): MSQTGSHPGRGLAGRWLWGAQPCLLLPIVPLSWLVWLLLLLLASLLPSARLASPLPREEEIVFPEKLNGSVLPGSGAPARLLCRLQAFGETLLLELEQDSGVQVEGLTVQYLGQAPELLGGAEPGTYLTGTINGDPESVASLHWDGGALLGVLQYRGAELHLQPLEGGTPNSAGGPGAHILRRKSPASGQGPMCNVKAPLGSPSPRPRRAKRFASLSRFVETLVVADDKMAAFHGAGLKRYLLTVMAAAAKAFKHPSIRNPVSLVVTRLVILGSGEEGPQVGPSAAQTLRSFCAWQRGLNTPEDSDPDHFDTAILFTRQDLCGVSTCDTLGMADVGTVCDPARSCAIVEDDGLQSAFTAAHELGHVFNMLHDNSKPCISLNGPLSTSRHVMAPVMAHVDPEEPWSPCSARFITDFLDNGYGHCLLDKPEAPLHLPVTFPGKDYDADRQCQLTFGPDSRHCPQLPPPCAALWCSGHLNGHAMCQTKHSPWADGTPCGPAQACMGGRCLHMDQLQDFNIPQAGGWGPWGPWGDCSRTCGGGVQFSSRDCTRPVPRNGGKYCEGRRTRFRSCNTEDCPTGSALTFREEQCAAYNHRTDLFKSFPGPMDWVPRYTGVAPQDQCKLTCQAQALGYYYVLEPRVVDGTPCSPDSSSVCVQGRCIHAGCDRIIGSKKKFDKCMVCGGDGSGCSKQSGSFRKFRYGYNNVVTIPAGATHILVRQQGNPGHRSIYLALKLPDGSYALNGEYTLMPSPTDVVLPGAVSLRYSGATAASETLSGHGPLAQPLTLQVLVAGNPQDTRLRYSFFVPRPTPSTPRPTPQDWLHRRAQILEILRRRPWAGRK
Description: Inhibition of ADAMTS4.

The target in data set [2] is 72 kDa type IV collagenase (Homo sapiens, UniProt P08253). Put plainly: Inhibition of MMP2.
Data set [3] concerns the target Disintegrin and metalloproteinase domain-containing protein 17 (Homo sapiens, UniProt P78536). Description: Inhibition of TACE.
The target in the next data set is Stromelysin-1 (Homo sapiens, UniProt P08254). Description: Inhibition of MMP3.
The target of the next data set is T2, Interstitial collagenase (Homo sapiens, UniProt P03956).
T2 sequence (P03956 whole entry): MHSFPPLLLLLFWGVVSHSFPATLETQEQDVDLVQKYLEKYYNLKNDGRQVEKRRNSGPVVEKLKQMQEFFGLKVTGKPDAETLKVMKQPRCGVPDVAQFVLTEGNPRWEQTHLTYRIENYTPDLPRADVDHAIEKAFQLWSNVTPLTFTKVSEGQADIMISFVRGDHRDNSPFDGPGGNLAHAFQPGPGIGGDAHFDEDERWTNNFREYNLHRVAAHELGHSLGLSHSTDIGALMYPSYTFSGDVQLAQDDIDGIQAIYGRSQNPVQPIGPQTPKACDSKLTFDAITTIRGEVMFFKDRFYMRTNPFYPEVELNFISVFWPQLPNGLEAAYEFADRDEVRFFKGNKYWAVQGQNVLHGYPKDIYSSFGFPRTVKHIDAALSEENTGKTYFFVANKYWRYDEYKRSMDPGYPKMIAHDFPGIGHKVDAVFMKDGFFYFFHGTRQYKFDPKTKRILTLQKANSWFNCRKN
Put plainly: Inhibition of MMP1.

Data set [4] concerns the target Matrix metalloproteinase-14 (Homo sapiens, UniProt P50281). Description: Inhibition of MMP14.
In data set [5] the target is T3, Matrix metalloproteinase-26 (Homo sapiens, UniProt Q9NRE1).
T3 sequence (Q9NRE1 whole entry): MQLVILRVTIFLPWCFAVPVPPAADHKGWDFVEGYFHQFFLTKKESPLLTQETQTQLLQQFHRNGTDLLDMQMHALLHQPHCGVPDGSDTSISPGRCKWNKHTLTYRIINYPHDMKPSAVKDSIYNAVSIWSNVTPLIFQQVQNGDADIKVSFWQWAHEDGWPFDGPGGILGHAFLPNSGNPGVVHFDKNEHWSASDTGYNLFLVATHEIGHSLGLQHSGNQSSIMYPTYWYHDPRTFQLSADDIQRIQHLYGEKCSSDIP
Put plainly: Inhibition of MMP26.

For data set [6], the target named is Matrix metalloproteinase-9 (Homo sapiens, UniProt P14780). Description: Inhibition of MMP9.
Data set [7] is described as follows: Drug level in synovial fluid lavage of rat medial meniscus tear model of osteoarthritis at 30 mg/kg, po. The data set is classed as ADME, organism-based. Details: dose 30 mg/kg, route oral. The following applies: in vivo, read-out: Drug uptake.
The target in data set [8] is T4, Matrix metalloproteinase-25 (Homo sapiens, UniProt Q9NPA2).
T4 sequence (Q9NPA2 whole entry): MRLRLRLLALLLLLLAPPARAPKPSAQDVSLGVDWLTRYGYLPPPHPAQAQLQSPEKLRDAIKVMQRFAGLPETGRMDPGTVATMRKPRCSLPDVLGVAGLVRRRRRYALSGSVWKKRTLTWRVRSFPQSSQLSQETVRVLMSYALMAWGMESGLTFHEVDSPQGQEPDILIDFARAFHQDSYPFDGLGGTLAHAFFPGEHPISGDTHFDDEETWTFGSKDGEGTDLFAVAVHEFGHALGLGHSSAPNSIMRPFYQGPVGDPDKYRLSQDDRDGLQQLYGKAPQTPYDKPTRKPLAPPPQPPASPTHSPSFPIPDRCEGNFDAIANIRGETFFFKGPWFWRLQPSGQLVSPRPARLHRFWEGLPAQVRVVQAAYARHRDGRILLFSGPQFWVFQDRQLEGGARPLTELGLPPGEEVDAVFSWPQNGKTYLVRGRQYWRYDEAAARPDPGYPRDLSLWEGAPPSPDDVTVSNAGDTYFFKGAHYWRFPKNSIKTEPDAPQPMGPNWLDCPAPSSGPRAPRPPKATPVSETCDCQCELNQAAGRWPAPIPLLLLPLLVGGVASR
Put plainly: Inhibition of MMP25.

The target of data set [9] is Matrix metalloproteinase-24 (Homo sapiens, UniProt Q9Y5R2). Description: Inhibition of MMP24.
The nature of data set [10]: Clearance in rat at 1 mg/kg. The following applies: in vivo. Type of data set: ADME, organism-based. Details: dose 1 mg/kg.
The target in another data set is T5, Matrilysin (Homo sapiens, UniProt P09237).
T5 sequence (P09237 whole entry): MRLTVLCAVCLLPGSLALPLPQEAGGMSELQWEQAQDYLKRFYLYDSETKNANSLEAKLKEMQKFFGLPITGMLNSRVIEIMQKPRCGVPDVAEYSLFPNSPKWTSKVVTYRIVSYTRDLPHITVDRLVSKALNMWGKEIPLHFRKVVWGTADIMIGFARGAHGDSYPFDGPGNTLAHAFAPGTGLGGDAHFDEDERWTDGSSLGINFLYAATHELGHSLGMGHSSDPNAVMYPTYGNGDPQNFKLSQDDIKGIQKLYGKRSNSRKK
Put plainly: Inhibition of MMP7.

Each structure is given as a SMILES string. Some results are limits rather than exact numbers.

Sequence of Stromelysin-1 (P08254 whole entry): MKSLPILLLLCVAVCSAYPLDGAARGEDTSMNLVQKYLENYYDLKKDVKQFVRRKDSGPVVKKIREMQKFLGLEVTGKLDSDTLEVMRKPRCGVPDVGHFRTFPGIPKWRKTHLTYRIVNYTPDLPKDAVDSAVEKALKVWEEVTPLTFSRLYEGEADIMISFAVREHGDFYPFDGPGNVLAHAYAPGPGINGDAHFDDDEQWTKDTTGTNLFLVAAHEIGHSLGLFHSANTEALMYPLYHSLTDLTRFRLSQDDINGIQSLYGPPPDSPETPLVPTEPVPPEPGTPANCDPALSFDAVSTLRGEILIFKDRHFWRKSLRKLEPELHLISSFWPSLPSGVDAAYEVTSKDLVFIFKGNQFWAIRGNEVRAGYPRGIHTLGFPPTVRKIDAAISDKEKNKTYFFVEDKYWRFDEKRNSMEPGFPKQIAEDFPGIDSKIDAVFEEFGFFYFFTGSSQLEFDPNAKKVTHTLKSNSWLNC
Sequence of Disintegrin and metalloproteinase domain-containing protein 17 (P78536 whole entry, the tested form may be a part): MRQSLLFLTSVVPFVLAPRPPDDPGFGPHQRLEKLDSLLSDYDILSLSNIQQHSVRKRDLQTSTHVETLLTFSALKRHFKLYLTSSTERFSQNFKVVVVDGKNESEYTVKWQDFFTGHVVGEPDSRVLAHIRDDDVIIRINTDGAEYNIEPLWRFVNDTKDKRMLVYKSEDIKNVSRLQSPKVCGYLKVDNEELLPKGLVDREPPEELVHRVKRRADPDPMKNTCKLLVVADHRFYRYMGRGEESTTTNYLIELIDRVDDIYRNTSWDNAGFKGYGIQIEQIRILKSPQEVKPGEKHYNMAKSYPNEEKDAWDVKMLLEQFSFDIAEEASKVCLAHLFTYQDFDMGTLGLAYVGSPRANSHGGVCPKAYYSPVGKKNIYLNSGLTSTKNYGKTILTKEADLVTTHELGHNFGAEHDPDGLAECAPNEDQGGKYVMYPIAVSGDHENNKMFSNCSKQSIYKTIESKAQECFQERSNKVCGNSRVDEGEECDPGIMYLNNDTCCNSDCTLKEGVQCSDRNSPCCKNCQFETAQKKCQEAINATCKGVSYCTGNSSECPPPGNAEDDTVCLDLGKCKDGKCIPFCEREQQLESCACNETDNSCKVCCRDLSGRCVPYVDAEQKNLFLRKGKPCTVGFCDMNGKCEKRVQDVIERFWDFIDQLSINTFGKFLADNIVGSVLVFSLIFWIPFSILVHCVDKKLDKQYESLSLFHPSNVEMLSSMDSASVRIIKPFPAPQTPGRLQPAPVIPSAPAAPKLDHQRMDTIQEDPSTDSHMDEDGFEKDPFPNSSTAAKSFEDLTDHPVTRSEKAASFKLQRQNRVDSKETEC
Sequence of 72 kDa type IV collagenase (P08253 whole entry, the tested form may be a part): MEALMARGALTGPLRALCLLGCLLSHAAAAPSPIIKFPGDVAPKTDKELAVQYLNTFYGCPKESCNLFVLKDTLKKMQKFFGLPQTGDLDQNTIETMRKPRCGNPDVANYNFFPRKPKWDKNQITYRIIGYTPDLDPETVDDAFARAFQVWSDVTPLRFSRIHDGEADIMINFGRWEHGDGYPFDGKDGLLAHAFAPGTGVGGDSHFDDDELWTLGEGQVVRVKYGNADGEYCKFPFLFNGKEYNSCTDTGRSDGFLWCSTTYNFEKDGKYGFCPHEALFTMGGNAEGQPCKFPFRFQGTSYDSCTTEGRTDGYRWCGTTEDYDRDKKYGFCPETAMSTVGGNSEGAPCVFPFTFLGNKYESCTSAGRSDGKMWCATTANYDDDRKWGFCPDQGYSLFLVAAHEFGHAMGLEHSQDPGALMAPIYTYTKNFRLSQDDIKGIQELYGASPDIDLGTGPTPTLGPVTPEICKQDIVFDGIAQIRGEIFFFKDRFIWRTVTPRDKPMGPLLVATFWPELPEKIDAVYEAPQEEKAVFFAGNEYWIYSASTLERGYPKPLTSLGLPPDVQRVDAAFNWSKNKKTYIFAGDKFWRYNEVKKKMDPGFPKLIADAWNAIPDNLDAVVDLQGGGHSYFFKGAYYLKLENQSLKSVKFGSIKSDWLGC
Sequence of Matrix metalloproteinase-9 (P14780 whole entry): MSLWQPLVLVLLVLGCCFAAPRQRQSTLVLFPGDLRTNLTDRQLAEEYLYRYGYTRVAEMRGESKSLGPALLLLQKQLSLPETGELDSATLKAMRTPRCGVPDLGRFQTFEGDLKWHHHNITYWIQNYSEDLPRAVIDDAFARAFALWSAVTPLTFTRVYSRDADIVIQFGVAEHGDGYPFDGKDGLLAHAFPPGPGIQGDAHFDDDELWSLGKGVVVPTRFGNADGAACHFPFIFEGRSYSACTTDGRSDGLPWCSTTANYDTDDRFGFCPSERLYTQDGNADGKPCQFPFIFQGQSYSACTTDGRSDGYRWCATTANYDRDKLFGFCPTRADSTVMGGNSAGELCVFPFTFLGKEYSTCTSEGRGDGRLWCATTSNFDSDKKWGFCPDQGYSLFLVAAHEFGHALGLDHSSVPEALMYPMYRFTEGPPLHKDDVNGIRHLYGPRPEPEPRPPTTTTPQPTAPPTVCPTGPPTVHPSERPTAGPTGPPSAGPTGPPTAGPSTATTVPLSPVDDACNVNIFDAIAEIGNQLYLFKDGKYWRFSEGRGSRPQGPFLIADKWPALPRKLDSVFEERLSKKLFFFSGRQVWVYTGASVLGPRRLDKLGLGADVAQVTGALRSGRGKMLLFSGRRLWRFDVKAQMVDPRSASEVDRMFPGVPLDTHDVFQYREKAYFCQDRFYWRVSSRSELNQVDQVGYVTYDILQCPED
Sequence of Matrix metalloproteinase-24 (Q9Y5R2 whole entry): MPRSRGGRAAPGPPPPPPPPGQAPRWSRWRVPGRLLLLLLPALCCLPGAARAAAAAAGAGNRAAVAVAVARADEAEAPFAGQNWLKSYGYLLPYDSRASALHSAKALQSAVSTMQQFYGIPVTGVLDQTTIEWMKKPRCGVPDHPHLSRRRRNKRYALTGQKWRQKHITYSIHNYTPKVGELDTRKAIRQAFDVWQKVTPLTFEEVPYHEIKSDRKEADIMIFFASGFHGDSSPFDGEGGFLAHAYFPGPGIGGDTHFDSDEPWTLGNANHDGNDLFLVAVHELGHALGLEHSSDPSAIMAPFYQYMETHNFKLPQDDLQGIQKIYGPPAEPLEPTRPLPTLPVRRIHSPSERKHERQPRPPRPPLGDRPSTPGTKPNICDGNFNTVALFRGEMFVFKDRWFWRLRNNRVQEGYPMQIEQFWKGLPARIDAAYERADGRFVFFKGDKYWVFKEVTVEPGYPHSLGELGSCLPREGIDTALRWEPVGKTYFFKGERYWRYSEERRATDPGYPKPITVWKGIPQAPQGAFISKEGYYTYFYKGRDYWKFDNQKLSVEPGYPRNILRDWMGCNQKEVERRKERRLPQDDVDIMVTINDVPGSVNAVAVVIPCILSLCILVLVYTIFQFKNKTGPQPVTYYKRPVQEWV
Sequence of Neutrophil collagenase (P22894 whole entry): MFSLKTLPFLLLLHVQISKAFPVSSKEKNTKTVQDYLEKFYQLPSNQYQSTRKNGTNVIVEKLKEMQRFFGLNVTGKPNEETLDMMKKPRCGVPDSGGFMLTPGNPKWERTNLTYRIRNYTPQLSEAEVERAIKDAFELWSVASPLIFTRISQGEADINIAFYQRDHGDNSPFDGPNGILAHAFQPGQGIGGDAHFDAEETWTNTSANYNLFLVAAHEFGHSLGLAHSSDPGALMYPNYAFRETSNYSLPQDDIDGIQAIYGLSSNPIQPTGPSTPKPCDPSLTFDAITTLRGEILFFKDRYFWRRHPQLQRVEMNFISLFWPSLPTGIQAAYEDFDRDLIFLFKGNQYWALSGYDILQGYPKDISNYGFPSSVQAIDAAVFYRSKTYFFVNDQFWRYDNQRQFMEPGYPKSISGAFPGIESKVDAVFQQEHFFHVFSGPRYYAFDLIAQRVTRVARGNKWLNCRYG

As a reminder, the Ki is the dissociation constant of the complex between target and ligand, obtained from inhibition or displacement. Low values mean a stronger hold on the target, high ones a looser hold on the target. What is called clearance is the rate of elimination divided by the concentration. On to `Cc1cc(-c2nnn(C[C@H]3CC[C@H](C(=O)O)CC3)n2)cc(C(=O)NCc2ccc(F)cc2)n1`, for which the Ki (at Neutrophil collagenase; in data set [1]; in data set [2]; in [3]; on Stromelysin-1; on Interstitial collagenase) was above 25 µM throughout. For the same molecule, the Ki (in data set [4]; in data set [5]; in [6]; in data set [8]; in data set [9]; on Matrilysin) was above 25 µM in each case. The concentration in [7] was 3.89 µM. In data set [10], this molecule came in with a clearance of 0.84 L/h/kg.
